# Measured values as given in ChEMBL document CHEMBL1201862, “PubChem BioAssay data set” (2004).
#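 96-well plates; 48 h exposure; 5 concentrations. Endpoints by linear interpolation between flanking doses. Not reached: highest tested concentration assigned. Here, GI50 denotes the concentration required for 50% inhibition of growth.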 Calls of active or inactive are those of the source. No stated cut-off is given here; in the data, active = GI50 up to about 1.1 µM and inactive = higher.
# Assays:
# Assay in all cases: DTP human tumour cell line panel, 48 h
# HCC 2998 = system: HCC 2998
# TK-10 = system: TK-10
# HT-29 = system: HT-29
# NCI/ADR-RES = system: NCI/ADR-RES
# KM12 = system: KM12
# UACC-257 = system: UACC-257
# HCT-15 = system: HCT-15
# IGROV-1 = system: IGROV-1
# HOP-62 = system: HOP-62
# NCI-H226 = system: NCI-H226
# SNB-19 = system: SNB-19
# CCRF-CEM = system: CCRF-CEM
# RXF 393 = system: RXF 393
# SK-OV-3 = system: SK-OV-3
# CAKI-1 = system: CAKI-1
# MDA-N = system: MDA-N
# NCI-H23 = system: NCI-H23
# COLO 205 = system: COLO 205
# UACC-62 = system: UACC-62
# MCF7 = system: MCF7
# Malme-3M = system: Malme-3M
# ACHN = system: ACHN
# SK-MEL-2 = system: SK-MEL-2
# Hs-578T = system: Hs-578T
# SF-295 = system: SF-295
# OVCAR-8 = system: OVCAR-8
# PC-3 = system: PC-3
# MOLT-4 = system: MOLT-4
# HOP-92 = system: HOP-92
# A549 = system: A549
# K562 = system: K562
# MDA-MB-231 = system: MDA-MB-231
# U-251 = system: U-251
# DU-145 = system: DU-145
# SK-MEL-5 = system: SK-MEL-5
# M14 = system: M14
# SNB-75 = system: SNB-75
# SF-268 = system: SF-268
# OVCAR-4 = system: OVCAR-4
# MDA-MB-435 = system: MDA-MB-435
# HCT-116 = system: HCT-116
# RPMI-8226 = system: RPMI-8226
# SK-MEL-28 = system: SK-MEL-28
# NCI-H460 = system: NCI-H460
# 786-0 = system: 786-0
# A498 = system: A498
# EKVX = system: EKVX
# SW-620 = system: SW-620
# LOX IMVI = system: LOX IMVI
# UO-31 = system: UO-31
# OVCAR-5 = system: OVCAR-5
# NCI-H522 = system: NCI-H522
# BT-549 = system: BT-549
# OVCAR-3 = system: OVCAR-3
# SN12C = system: SN12C
# T47D = system: T47D
# SF-539 = system: SF-539
# SR = system: SR
# HL-60 = system: HL-60
smiles,measurement,setting,value
C[C@]12CC(c3ccccc3O1)C(C(=O)NC13CC4CC(CC(C4)C1)C3)C(=O)N2 (some centres not stated),GI50,HCC 2998,29 µM (inactive)
same,GI50,TK-10,70.1 µM (inactive)
same,GI50,HT-29,16.1 µM (inactive)
same,GI50,NCI/ADR-RES,20.3 µM (inactive)
same,GI50,KM12,35.5 µM (inactive)
same,GI50,UACC-257,35.7 µM (inactive)
same,GI50,HCT-15,25.9 µM
same,GI50,IGROV-1,31.4 µM (inactive)
same,GI50,HOP-62,44.3 µM (inactive)
same,GI50,NCI-H226,23.6 µM (inactive)
same,GI50,SNB-19,23.4 µM (inactive)
same,GI50,CCRF-CEM,20 µM (inactive)
same,GI50,RXF 393,25.6 µM (inactive)
same,GI50,SK-OV-3,64.9 µM (inactive)
same,GI50,CAKI-1,38.6 µM (inactive)
same,GI50,MDA-N,18.1 µM (inactive)
same,GI50,NCI-H23,23.7 µM (inactive)
same,GI50,COLO 205,15.6 µM (inactive)
same,GI50,UACC-62,46.8 µM (inactive)
same,GI50,MCF7,39.5 µM (inactive)
same,GI50,Malme-3M,33 µM (inactive)
same,GI50,ACHN,34.1 µM (inactive)
same,GI50,SK-MEL-2,19.9 µM (inactive)
same,GI50,Hs-578T,55.7 µM (inactive)
same,GI50,SF-295,44.8 µM (inactive)
same,GI50,OVCAR-8,26.6 µM (inactive)
same,GI50,PC-3,32.1 µM (inactive)
same,GI50,MOLT-4,12 µM (inactive)
same,GI50,HOP-92,20.7 µM (inactive)
same,GI50,A549,21.1 µM (inactive)
same,GI50,K562,14 µM (inactive)
same,GI50,MDA-MB-231,34.4 µM (inactive)
same,GI50,U-251,36.6 µM (inactive)
same,GI50,DU-145,38.4 µM (inactive)
same,GI50,SK-MEL-5,17.9 µM (inactive)
same,GI50,M14,15.6 µM (inactive)
same,GI50,SNB-75,27.5 µM (inactive)
same,GI50,SF-268,32.1 µM (inactive)
same,GI50,OVCAR-4,52.6 µM (inactive)
same,GI50,MDA-MB-435,26.2 µM (inactive)
same,GI50,HCT-116,18.4 µM (inactive)
same,GI50,RPMI-8226,16 µM (inactive)
same,GI50,SK-MEL-28,28.3 µM (inactive)
same,GI50,NCI-H460,35.4 µM (inactive)
same,GI50,786-0,18.3 µM (inactive)
same,GI50,A498,39.9 µM (inactive)
same,GI50,EKVX,0.249 µM (active)
same,GI50,SW-620,46.3 µM (inactive)
same,GI50,LOX IMVI,23.4 µM (inactive)
same,GI50,UO-31,20 µM (inactive)
same,GI50,OVCAR-5,19.5 µM (inactive)
same,GI50,NCI-H522,39 µM (inactive)
same,GI50,BT-549,28.1 µM (inactive)
same,GI50,OVCAR-3,44.9 µM (inactive)
CCOC(=O)Nn1cnnc1C,GI50,HCC 2998,> 100 µM (inactive)
same,GI50,TK-10,> 100 µM (inactive)
same,GI50,SN12C,> 100 µM (inactive)
same,GI50,T47D,> 100 µM (inactive)
same,GI50,HT-29,> 100 µM (inactive)
same,GI50,NCI/ADR-RES,> 100 µM (inactive)
same,GI50,KM12,> 100 µM (inactive)
same,GI50,UACC-257,> 100 µM (inactive)
same,GI50,HCT-15,> 100 µM
same,GI50,IGROV-1,> 100 µM (inactive)
same,GI50,HOP-62,> 100 µM (inactive)
same,GI50,NCI-H226,> 100 µM (inactive)
same,GI50,SNB-19,> 100 µM (inactive)
same,GI50,CCRF-CEM,> 100 µM (inactive)
same,GI50,RXF 393,> 100 µM (inactive)
same,GI50,SK-OV-3,> 100 µM (inactive)
same,GI50,CAKI-1,> 100 µM (inactive)
same,GI50,MDA-N,> 100 µM (inactive)
same,GI50,NCI-H23,> 100 µM (inactive)
same,GI50,COLO 205,> 100 µM (inactive)
same,GI50,UACC-62,> 100 µM (inactive)
same,GI50,MCF7,> 100 µM (inactive)
same,GI50,Malme-3M,> 100 µM (inactive)
same,GI50,ACHN,> 100 µM (inactive)
same,GI50,SK-MEL-2,> 100 µM (inactive)
same,GI50,SF-539,> 100 µM (inactive)
same,GI50,SR,> 100 µM (inactive)
same,GI50,SF-295,> 100 µM (inactive)
same,GI50,OVCAR-8,> 100 µM (inactive)
same,GI50,PC-3,> 100 µM (inactive)
same,GI50,MOLT-4,> 100 µM (inactive)
same,GI50,HOP-92,> 100 µM (inactive)
same,GI50,A549,> 100 µM (inactive)
same,GI50,K562,> 100 µM (inactive)
same,GI50,MDA-MB-231,> 100 µM (inactive)
same,GI50,U-251,> 100 µM (inactive)
same,GI50,SK-MEL-5,> 100 µM (inactive)
same,GI50,M14,> 100 µM (inactive)
same,GI50,OVCAR-4,> 100 µM (inactive)
same,GI50,MDA-MB-435,> 100 µM (inactive)
same,GI50,HCT-116,> 100 µM (inactive)
same,GI50,RPMI-8226,> 100 µM (inactive)
same,GI50,NCI-H460,> 100 µM (inactive)
same,GI50,786-0,> 100 µM (inactive)
same,GI50,A498,> 100 µM (inactive)
same,GI50,EKVX,> 100 µM (inactive)
same,GI50,SW-620,> 100 µM (inactive)
same,GI50,LOX IMVI,> 100 µM (inactive)
same,GI50,UO-31,> 100 µM (inactive)
same,GI50,OVCAR-5,> 100 µM (inactive)
same,GI50,NCI-H522,> 100 µM (inactive)
same,GI50,BT-549,> 100 µM (inactive)
same,GI50,OVCAR-3,> 100 µM (inactive)
CC(C)(C)C1CCC2c3c([nH]c4ccccc34)C3C(=O)N(c4ccc(C(=O)O)cc4)C(=O)C3C2C1 (configuration not stated),GI50,HCC 2998,15.6 µM (inactive)
same,GI50,TK-10,17.5 µM (inactive)
same,GI50,SN12C,12.8 µM (inactive)
same,GI50,HT-29,12.9 µM (inactive)
same,GI50,NCI/ADR-RES,16.7 µM (inactive)
same,GI50,UACC-257,13.9 µM (inactive)
same,GI50,HCT-15,12 µM
same,GI50,IGROV-1,18.5 µM (inactive)
same,GI50,HOP-62,0.1 µM (active)
same,GI50,NCI-H226,20.9 µM (inactive)
same,GI50,SNB-19,16.8 µM (inactive)
same,GI50,CCRF-CEM,3.69 µM (inactive)
same,GI50,RXF 393,10.9 µM (inactive)
same,GI50,SK-OV-3,17.5 µM (inactive)
same,GI50,CAKI-1,16.7 µM (inactive)
same,GI50,MDA-N,11.9 µM (inactive)
same,GI50,NCI-H23,17.7 µM (inactive)
same,GI50,COLO 205,19 µM (inactive)
same,GI50,HL-60,4.52 µM (inactive)
same,GI50,UACC-62,14.2 µM (inactive)
same,GI50,MCF7,11 µM (inactive)
same,GI50,Malme-3M,14.9 µM (inactive)
same,GI50,ACHN,11.7 µM (inactive)
same,GI50,SK-MEL-2,14.9 µM (inactive)
same,GI50,SF-539,17.2 µM (inactive)
same,GI50,SR,25 µM (inactive)
same,GI50,Hs-578T,17.6 µM (inactive)
same,GI50,SF-295,10.1 µM (inactive)
same,GI50,OVCAR-8,12 µM (inactive)
same,GI50,PC-3,13.4 µM (inactive)
same,GI50,MOLT-4,0.1 µM (active)
same,GI50,HOP-92,11.2 µM (inactive)
same,GI50,A549,12.2 µM (inactive)
same,GI50,K562,4.43 µM (inactive)
same,GI50,MDA-MB-231,15.5 µM (inactive)
same,GI50,U-251,13.4 µM (inactive)
same,GI50,DU-145,17.5 µM (inactive)
same,GI50,SK-MEL-5,13.1 µM (inactive)
same,GI50,M14,16.8 µM (inactive)
same,GI50,SF-268,14.2 µM (inactive)
same,GI50,MDA-MB-435,2.96 µM (inactive)
same,GI50,HCT-116,14.4 µM (inactive)
same,GI50,RPMI-8226,20 µM (inactive)
same,GI50,SK-MEL-28,11.3 µM (inactive)
same,GI50,NCI-H460,16.3 µM (inactive)
same,GI50,786-0,15.7 µM (inactive)
same,GI50,A498,18.2 µM (inactive)
same,GI50,EKVX,22 µM (inactive)
same,GI50,SW-620,13.6 µM (inactive)
same,GI50,LOX IMVI,14.5 µM (inactive)
same,GI50,UO-31,16.8 µM (inactive)
same,GI50,OVCAR-5,21.9 µM (inactive)
same,GI50,NCI-H522,18.9 µM (inactive)
same,GI50,BT-549,14.5 µM (inactive)
same,GI50,OVCAR-3,12.4 µM (inactive)
